From patent US7067697B2, “Cationic liposomes for gene transfer” (priority 1998, dated 2006) come the findings set out here.

The test system of one series is CD-1 mouse lungs. As to the kind of experiment: In vivo transfection of CD-1 mice with i.v. lipoplex (pCMV-Luc), luciferase activity assay in organs. As to conditions: for Relative Activity of MMET Analogues-Cholesterol Liposomes: cationic lipid:cholesterol 1:1 mol/mol, in vivo transfection to the lungs, MMET = 100; for rank order of transfection activity in lungs: liposomes of pure cationic lipid, charge ratio 8:1 to 16:1, 12 hours after i.v.; for transfection level versus trimethylammonium counterparts (DOTMA, DOTAP): 4:1 +/− charge ratio, pure cationic lipid liposomes. As for the experimental part:
Cationic liposomes of formulas (I-VI) were prepared from pure cationic lipids or as equimolar mixtures of a cationic lipid and neutral lipids, such as DOPE, or cholesterol, using extrusion or sonication methods. One hundred μmoles of a cationic lipid or one hundred μmoles each of a cationic lipid and a selected neutral lipid were dissolved in a round bottom flask. The organic solvent was then evaporated under vacuum at 45° C. to form a thin lipid film. The residual solvent was further removed under high vacuum for one hour. The lipid film was then suspended with 10 ml of endotoxin-free distilled water (Gibco, BRL, MD) at room temperature for one hour, and subsequently extruded using 0.8 μm, 0.4 μm and 0.2 μm pore size filters. The extruded multilammelar liposomes have sizes of 850 nm, 350 nm and 280 nm in diameter, respectively. Some of the extruded liposomes were further sonicated in a bath sonicator for 2-5 minutes to form unilamellar liposomes with a size of about 100 nm in diameter. The size of the liposomes were measured by 90° laser dynamic light scattering using a Zetamaster submicron particle analyzer.
(§1) For transfection in vivo, normal CD-1 mouse was used as a model. The charge ration of lipid to DNA (±) was used throughout the study, assuming that 25 μg of DNA contains about 75 nmoles of negative charges, and one nmole of quaternary ammonium cationic lipid contains one nmole of positive charges. To prepare lipoplex for transfection, 25 μg or an indicated amounts of pCMV DNA was diluted in 100 μl of distilled water (endotoxin screened, Gibco). The diluted DNA solution was added to a polystyrene tube containing an indicated amount of cationic liposomes in 100 μl and was mixed immediately. The complexes were kept at + room temperature for 30 minutes before being administered to the animals via tail vein.
Luciferase activity was measured in various organs, including lung, liver spleen, and heart from transfected animals, using a luciferase activity assay kit (Promega, Madison, Wis.) and a luminometer (Moonlight 3010). Organs were collected from the animals at 12 hours post transfection or at an indicated time after injection of lipoplex. About 0.2 g of liver were removed from the animal. One ml of 1× lysis buffer (Promega, Madison, Wis.), supplemented with 0.1% Triton-X100 was added to collected organs. Each organ was homogenized for 10-20 seconds using a handheld homogenizer (Dremel, Racine, Wis.) as it top speed (about 30,000 rpm). The samples were centrifuged in a microcentrifuge for three minutes. A 10 μL of the cleared supernatant, containing approximately 100-200 μg proteins, was measured for luciferase activity. Protein content in the supernatants was determined with BioRad dye reagent method, using albumin as a standard. The luciferase activities were normalized to the relative light unit per milligram of extracted protein.

Series [1] relates to CD-1 mice. It counts as in vivo. The note with it: for safety of lipoplex for CD-1 mice: 25 μg of DNA, pure cationic lipid liposomes, 1:16 charge ratio; for Number of animals died per group (n = 3): CD-1 mice (20 g), charge ratio 16:1+/−, counted after 48 h; for relative toxicity of liposome compositions: escalating doses of lipoplexes, groups of three animals, first 48 hours. As to the method: as §1
Table 2 below lists the number of animals that expired during the first 48 hours of the experiment period, when escalating doses of the lipoplexes were given to a group of three animals. Lipoplex containing 25 μg of DNA and DOTMA or MMET liposomes at 1:16 charge ratio or with a mixture of cholesterol-DOTMA, or cholesterol-MMET at 1:4 charge ratios appear to be quite safe for CD-1 mice. Higher charge ratios of lipid to DNA and high doses of lipoplex were required to reach a lethal dose. […] In general, MMET containing liposomes were less toxic than the ones containing DOTMA.

Series [2] relates to CD-1 mice. As to conditions: mouse, in vivo.

Where two headings read alike, the source gives them in different places.

`CCCCCCCC/C=C\CCCCCCCCOCC[N+]1(CCOCCCCCCCC/C=C\CCCCCCCC)CCOCC1.[Cl-]` [DODHEM, N,N-di-(2-oleyloxyethyl)-mopholinium chloride]: the “Relative Activity of MMET Analogues-Cholesterol Liposomes” value with CD-1 mouse lungs was determined as 74.54.

On to `CCCCCCCC/C=C\CCCCCCCC[N+]1(CCCCCCCC/C=C\CCCCCCCC)CCOCC1.[Cl-]` [DOMor, N,N-dioleylmorpholinium chloride], for which, in the series with CD-1 mouse lungs, the “Relative Activity of MMET Analogues-Cholesterol Liposomes” value was 76.09.

In the case of `CCCCCCCC/C=C\CCCCCCCC(=O)OCC(C[N+](C)(C)C)OC(=O)CCCCCCC/C=C\CCCCCCCC` (centres unmarked) [DOTAP, 1,2-dioleoyl-3-trimethylammonium propane, reference compound], in the series with CD-1 mouse lungs, the “Relative Activity of MMET Analogues-Cholesterol Liposomes” value was 28.14 and the “rank order of transfection activity in lungs” value (from here on “rank order”) was “MMET≧DOTMA>MMES>DOTAP>LADOP”.

For the compound `CCCCCCCC/C=C\CCCCCCCCOCC(C[N+](C)(C)C)OCCCCCCCC/C=C\CCCCCCCC.[Cl-]` (centres unmarked) [DOTMA, 1,2,-dioleyl-3-N,N,N-trimethyl amino propane chloride, reference compound], the “rank order” value in the series with CD-1 mouse lungs is “MMET≧DOTMA>MMES>DOTAP>LADOP”. The “safety of lipoplex for CD-1 mice” value in the series with CD-1 mice [1] was “quite safe”. Further, the “Number of animals died per group (n = 3)” value in the series on CD-1 mice [1] (DNA dosage 25 ug) is “(0)”; with CD-1 mice [1] (DNA dosage 30 ug), “(2)”; in the series with CD-1 mice [1] (DNA dosage 45 ug), “(3)”. Further, in the series with CD-1 mice [1], the “relative toxicity of liposome compositions” value is “somewhere in between”.

As for `CCCCCCCC/C=C\CCCCCCCC(=O)OCC(CNC(=O)[C@@H](N)CCCCN)OC(=O)CCCCCCC/C=C\CCCCCCCC` (stereo partly drawn) [LADOP, N-[(2,3-dioleoyloxy)propyl]-L-lysinamide], the “duration of transgene expression in lungs (disappearing by)” value in the series with CD-1 mouse lungs (liposome/DNA complex delivered intravenously, after transfection) is not above 48 h. The “rank order” value in the series with CD-1 mouse lungs is listed as “MMET≧DOTMA>MMES>DOTAP>LADOP”. Further, the “gene expression after second intravenous transfection” value with CD-1 mouse lungs (second injection at 48 hours after the first injection) was “almost identical gene expression and duration”. For the same compound, the “tolerance of repeated intravenous doses” value in the series with CD-1 mice [2] is recorded as “tolerated repeated intravenous doses of DNA/LADOP complex well”.

For the compound `CCCCCCCC/C=C\CCCCCCCC(=O)OCC(C[N+]1(C)CCOCC1)OC(=O)CCCCCCC/C=C\CCCCCCCC` (centres unmarked) [MMES, N-3-methyl-1,2-dioleoyl-3-morpholinium propane], the “transfection level versus trimethylammonium counterparts (DOTMA, DOTAP)” value with CD-1 mouse lungs (lungs) is listed as “higher levels of transfection”. Besides, in the series with CD-1 mouse lungs, the “Relative Activity of MMET Analogues-Cholesterol Liposomes” value is recorded as 48.72 and the “rank order” value is “MMET≧DOTMA>MMES>DOTAP>LADOP”.

Regarding `CCCCCCCC/C=C\CCCCCCCC(=O)OCC(C[N+]1(C)CCCC1)OC(=O)CCCCCCC/C=C\CCCCCCCC` (centres unmarked) [MPES, N-3-methyl-1,2-dioleoul-3-pyrrolinum propane], the “Relative Activity of MMET Analogues-Cholesterol Liposomes” value in the series on CD-1 mouse lungs is on record as 1.87.

Consider `CCCCCCCC/C=C\CCCCCCCCOCC(C[N+]1(C)CCCC1)OCCCCCCCC/C=C\CCCCCCCC` (centres unmarked) [MPET, -3-methyl-1,2-dioleyl-3-pyrrolinium propane], for which, in the series with CD-1 mouse lungs, the “Relative Activity of MMET Analogues-Cholesterol Liposomes” value came out at 55.49.

`CCCCCCCC/C=C\CCCCCCCCOCC(CN1CCOCC1)OCCCCCCCC/C=C\CCCCCCCC` (centres unmarked) [dioleyl morpholino propanediol, 1,2-dioleyl-N-3-morpholino propane]: in the series on CD-1 mouse lungs (formulated with cholesterol at 1:1 mole ratios, lungs), the “in vivo transfection activity of MMET analogues (in words)” value is “only weak activity”.

Regarding “N-3-methyl-1,2-dioleyl-3-morpholinium propane chloride [MMET]”, the “transfection level versus trimethylammonium counterparts (DOTMA, DOTAP)” value in the series on CD-1 mouse lungs (lungs) was “higher levels of transfection”. In the series with CD-1 mouse lungs, the “Relative Activity of MMET Analogues-Cholesterol Liposomes” value is 100 and the “rank order” value is on record as “MMET≧DOTMA>MMES>DOTAP>LADOP”. For the same compound, the “transfection activity versus prior art liposomes composed of DOTMA and/or DOTAP or DOTMA-cholesterol” value in the series on CD-1 mouse lungs (i.v. to mice, luciferase after 12 hours) is recorded as “much higher”. Besides, in the series on CD-1 mice [1], the “safety of lipoplex for CD-1 mice” value is given as “quite safe” and the “relative toxicity of liposome compositions” value was “somewhere in between”. In addition, the “Number of animals died per group (n = 3)” value in the series on CD-1 mice [1] (DNA dosage 25 ug) was “(0)”. For the same compound, the “Number of animals died per group (n = 3)” value in the series on CD-1 mice [1] (DNA dosage 30 ug) is “(0)”. The “Number of animals died per group (n = 3)” value in the series on CD-1 mice [1] (DNA dosage 45 ug) was “(1)”.
